The source of these data is patent US7153852B2, “Indole compounds, process for producing the same and drugs containing the same as the active ingredient” (Ono Pharmaceutical Co., Ltd., priority 2001, dated 2006).

The target of the experiment is T1, mouse DP receptors (Mus musculus, UniProt P70263).
T1 construct: expressed in transfected cells; host or cells: CHO cells (membrane preparation)
T1 sequence (P70263 1-357): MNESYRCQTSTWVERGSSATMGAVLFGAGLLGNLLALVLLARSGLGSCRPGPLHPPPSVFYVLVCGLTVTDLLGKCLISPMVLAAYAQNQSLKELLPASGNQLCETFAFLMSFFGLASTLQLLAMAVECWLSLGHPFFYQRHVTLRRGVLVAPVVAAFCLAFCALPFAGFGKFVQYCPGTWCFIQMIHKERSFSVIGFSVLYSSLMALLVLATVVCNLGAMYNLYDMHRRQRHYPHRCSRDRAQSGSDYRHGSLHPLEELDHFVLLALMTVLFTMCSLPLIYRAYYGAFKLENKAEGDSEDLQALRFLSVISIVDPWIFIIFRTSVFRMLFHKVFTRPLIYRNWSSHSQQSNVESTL
Briefly: Receptor binding test using prostanoid DP receptor-expressing cells (3H-PGD2 binding inhibition). The conditions noted are these: membrane of CHO cells expressing mouse DP receptors; 3H-PGD2 2.5 nmol/L; Ki=IC50/(1+([L]*/Kd)). The method, then:
(i) Receptor Binding Test Using Prostanoid DP Receptor-Expressing Cells
CHO cells expressing mouse DP receptors were prepared according to the method of Hirata et al. (Proc. Natl. Acad. Sci., 91, 11192–11196 (1994)) and used as a membrane standard.
A reaction solution (200 μL) containing the prepared membrane standard (30–166 μg) and ^3H-PGD2 was incubated at room temperature for 20 minutes. The reaction was stopped with an ice-cold buffer (1 mL) and the binding ^3H-PGD2 was trapped in on a glass filter by immediate aspiration-filtration under a reduced pressure, and its binding radioactivity was measured using a liquid scintillation counter.
Kd value and Bmax value were obtained from Scatchard plots (Ann. N. Y. Acad. Sci., 51, 660 (1949)]. Non-specific binding was obtained as the binding radioactivity in the presence of unlabeled PGD2 at an excess amount (10 μmol/L). 3H-PGD2 binding inhibition by the compound of the present invention was measured by adding ^3H-PGD2 (2.5 nmol/L) and the compound of the present invention as various concentrations. Also, the following buffers were used for the reactions.
The dissociation constant (Ki) (μmol/L) of each compound was obtained by the following equation. Ki=IC50/(1+([L]*/Kd)) • [L*]: Concentration of radioligand

Usually Ki stands for a dissociation constant, usually derived from enzyme kinetics or from competition with a known ligand. High values mean weaker binding, low ones tighter binding. In the case of `Cc1cc2c(CC(=O)O)cccc2n1C(=O)c1ccc(OC[C@H]2Cc3ccccc3O2)cc1` [2(16), 1-(4-((2R)-2,3-dihydrobenzofuran-2-ylmethoxy)benzoyl)-2-methyl-1H-indol-4-ylacetic acid], the Ki came to 31 nM.
